Laboratory results from the supplement of paper PMC10307832.

How the values were obtained:
Assay in all cases: relative viability (nuclei count vs DMSO), 5 days (fraction); higher = more cells survive
[1] = test system: A549
Procedure, shortened: (§1)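 Medians of duplicate plates are given as relative viability. That measure is the nuclei count in treated wells divided by the count in vehicle wells. Counts were taken on 4× images of lung cancer cell lines in 1536-well plates, 5 days after pin-tool dosing the day after seeding with one drug alone or a fixed anchor-drug dose plus five library-drug doses (not always all listed) in √10 steps.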

[2] = test system: ABC-1
Procedure, shortened: as §1

[3] = test system: EKVX
Procedure, shortened: as §1

[4] = test system: HCC-44
Procedure, shortened: as §1

[5] = test system: NCI-H1623
Procedure, shortened: as §1

[6] = test system: NCI-H1993
Procedure, shortened: as §1

[7] = test system: NCI-H2085
Procedure, shortened: as §1

[8] = test system: NCI-H2126
Procedure, shortened: as §1

[9] = test system: RERF-LC-KJ
Procedure, shortened: as §1

SMILES: O=c1cc(N2CCOCC2)oc2c(-c3cccc4c3sc3ccccc34)cccc12 + N=C(N)NC(=N)NCCc1ccccc1 [Phenformin] (partner 250 µM)
- relative viability ([1]; first compound 0.01 µM): 0.201
- relative viability ([1]; first compound 0.03162 µM): 0.143
- relative viability ([1]; first compound 0.1 µM): 0.0905
- relative viability ([1]; first compound 0.3162 µM): 0.167
- relative viability ([1]; first compound 1 µM): 0.183
- relative viability ([2]; first compound 0.01 µM): 0.228
- relative viability ([2]; first compound 0.03162 µM): 0.258
- relative viability ([2]; first compound 0.1 µM): 0.225
- relative viability ([2]; first compound 0.3162 µM): 0.28
- relative viability ([2]; first compound 1 µM): 0.266
- relative viability ([3]; first compound 0.01 µM): 0.228
- relative viability ([3]; first compound 0.03162 µM): 0.238
- relative viability ([3]; first compound 0.1 µM): 0.201
- relative viability ([3]; first compound 0.3162 µM): 0.216
- relative viability ([3]; first compound 1 µM): 0.199
- relative viability ([4]; first compound 0.01 µM): 0.249
- relative viability ([4]; first compound 0.03162 µM): 0.187
- relative viability ([4]; first compound 0.1 µM): 0.134
- relative viability ([4]; first compound 0.3162 µM): 0.366
- relative viability ([4]; first compound 1 µM): 0.139
- relative viability ([5]; first compound 0.01 µM): 0.565
- relative viability ([5]; first compound 0.03162 µM): 0.619
- relative viability ([5]; first compound 0.1 µM): 0.324
- relative viability ([5]; first compound 0.3162 µM): 0.585
- relative viability ([5]; first compound 1 µM): 0.545
- relative viability ([6]; first compound 0.01 µM): 0.61
- relative viability ([6]; first compound 0.03162 µM): 0.508
- relative viability ([6]; first compound 0.1 µM): 0.506
- relative viability ([6]; first compound 0.3162 µM): 0.483
- relative viability ([6]; first compound 1 µM): 0.556
- relative viability ([7]; first compound 0.01 µM): 0.713
- relative viability ([7]; first compound 0.03162 µM): 0.708
- relative viability ([7]; first compound 0.1 µM): 0.625
- relative viability ([7]; first compound 0.3162 µM): 0.745
- relative viability ([7]; first compound 1 µM): 0.734
- relative viability ([8]; first compound 0.01 µM): 0.513
- relative viability ([8]; first compound 0.03162 µM): 0.547
- relative viability ([8]; first compound 0.1 µM): 0.53
- relative viability ([8]; first compound 0.3162 µM): 0.554
- relative viability ([8]; first compound 1 µM): 0.515
- relative viability ([9]; first compound 0.01 µM): 0.429
- relative viability ([9]; first compound 0.03162 µM): 0.413
- relative viability ([9]; first compound 0.1 µM): 0.412
- relative viability ([9]; first compound 0.3162 µM): 0.418
- relative viability ([9]; first compound 1 µM): 0.427

SMILES: CCN(CC)CCCCNc1ncc2cc(-c3cc(OC)cc(OC)c3)c(NC(=O)NC(C)(C)C)nc2n1 + N=C(N)NC(=N)NCCc1ccccc1 [Phenformin] (partner 250 µM)
- relative viability ([1]; first compound 0.01 µM): 0.198
- relative viability ([1]; first compound 0.03162 µM): 0.19
- relative viability ([1]; first compound 0.1 µM): 1.04
- relative viability ([1]; first compound 0.3162 µM): 0.247
- relative viability ([1]; first compound 1 µM): 0.12
- relative viability ([2]; first compound 0.01 µM): 0.24
- relative viability ([2]; first compound 0.03162 µM): 0.286
- relative viability ([2]; first compound 0.1 µM): 0.256
- relative viability ([2]; first compound 0.3162 µM): 0.208
- relative viability ([2]; first compound 1 µM): 0.254
- relative viability ([3]; first compound 0.01 µM): 0.223
- relative viability ([3]; first compound 0.03162 µM): 0.227
- relative viability ([3]; first compound 0.1 µM): 0.243
- relative viability ([3]; first compound 0.3162 µM): 0.258
- relative viability ([3]; first compound 1 µM): 0.248
- relative viability ([4]; first compound 0.01 µM): 0.189
- relative viability ([4]; first compound 0.03162 µM): 0.195
- relative viability ([4]; first compound 0.1 µM): 0.237
- relative viability ([4]; first compound 0.3162 µM): 0.234
- relative viability ([4]; first compound 1 µM): 0.22
- relative viability ([5]; first compound 0.01 µM): 0.602
- relative viability ([5]; first compound 0.03162 µM): 0.49
- relative viability ([5]; first compound 0.1 µM): 0.626
- relative viability ([5]; first compound 0.3162 µM): 0.608
- relative viability ([5]; first compound 1 µM): 0.577
- relative viability ([6]; first compound 0.01 µM): 0.501
- relative viability ([6]; first compound 0.03162 µM): 0.512
- relative viability ([6]; first compound 0.1 µM): 0.554
- relative viability ([6]; first compound 0.3162 µM): 0.492
- relative viability ([6]; first compound 1 µM): 0.514
- relative viability ([7]; first compound 0.01 µM): 0.735
- relative viability ([7]; first compound 0.03162 µM): 0.661
- relative viability ([7]; first compound 0.1 µM): 0.76
- relative viability ([7]; first compound 0.3162 µM): 0.808
- relative viability ([7]; first compound 1 µM): 0.779
- relative viability ([8]; first compound 0.01 µM): 0.496
- relative viability ([8]; first compound 0.03162 µM): 0.52
- relative viability ([8]; first compound 0.1 µM): 0.551
- relative viability ([8]; first compound 0.3162 µM): 0.623
- relative viability ([8]; first compound 1 µM): 0.515
- relative viability ([9]; first compound 0.01 µM): 0.389
- relative viability ([9]; first compound 0.03162 µM): 0.463
- relative viability ([9]; first compound 0.1 µM): 0.469
- relative viability ([9]; first compound 0.3162 µM): 0.471
- relative viability ([9]; first compound 1 µM): 0.469

SMILES: O=c1cc(-c2cccc3c2Sc2ccccc2S3)oc(N2CCOCC2)c1 + N=C(N)NC(=N)NCCc1ccccc1 [Phenformin] (partner 250 µM)
- relative viability ([1]; first compound 0.08 µM): 0.202
- relative viability ([1]; first compound 0.253 µM): 0.097
- relative viability ([1]; first compound 0.8 µM): 0.315
- relative viability ([1]; first compound 2.53 µM): 0.129
- relative viability ([1]; first compound 8 µM): 0.28
- relative viability ([2]; first compound 0.08 µM): 0.228
- relative viability ([2]; first compound 0.253 µM): 0.23
- relative viability ([2]; first compound 0.8 µM): 0.23
- relative viability ([2]; first compound 2.53 µM): 0.234
- relative viability ([2]; first compound 8 µM): 0.277
- relative viability ([3]; first compound 0.08 µM): 0.191
- relative viability ([3]; first compound 0.253 µM): 0.237
- relative viability ([3]; first compound 0.8 µM): 0.218
- relative viability ([3]; first compound 2.53 µM): 0.209
- relative viability ([3]; first compound 8 µM): 0.265
- relative viability ([4]; first compound 0.08 µM): 0.173
- relative viability ([4]; first compound 0.253 µM): 0.172
- relative viability ([4]; first compound 0.8 µM): 0.144
- relative viability ([4]; first compound 2.53 µM): 0.182
- relative viability ([4]; first compound 8 µM): 0.217
- relative viability ([5]; first compound 0.08 µM): 0.603
- relative viability ([5]; first compound 0.253 µM): 0.68
- relative viability ([5]; first compound 0.8 µM): 0.593
- relative viability ([5]; first compound 2.53 µM): 0.535
- relative viability ([5]; first compound 8 µM): 0.576
- relative viability ([6]; first compound 0.08 µM): 0.494
- relative viability ([6]; first compound 0.253 µM): 0.52
- relative viability ([6]; first compound 0.8 µM): 0.589
- relative viability ([6]; first compound 2.53 µM): 0.565
- relative viability ([6]; first compound 8 µM): 0.56
- relative viability ([7]; first compound 0.08 µM): 0.654
- relative viability ([7]; first compound 0.253 µM): 0.702
- relative viability ([7]; first compound 0.8 µM): 0.739
- relative viability ([7]; first compound 2.53 µM): 0.678
- relative viability ([7]; first compound 8 µM): 0.576
- relative viability ([8]; first compound 0.08 µM): 0.53
- relative viability ([8]; first compound 0.253 µM): 0.584
- relative viability ([8]; first compound 0.8 µM): 0.482
- relative viability ([8]; first compound 2.53 µM): 0.517
- relative viability ([8]; first compound 8 µM): 0.521
- relative viability ([9]; first compound 0.08 µM): 0.4
- relative viability ([9]; first compound 0.253 µM): 0.426
- relative viability ([9]; first compound 0.8 µM): 0.465
- relative viability ([9]; first compound 2.53 µM): 0.444
- relative viability ([9]; first compound 8 µM): 0.406

SMILES: COc1nc(C)cnc1NS(=O)(=O)c1cccnc1-c1ccc(-c2nnco2)cc1 [Zibotentan] + CCNC(=O)c1noc(-c2cc(C(C)C)c(O)cc2O)c1-c1ccc(CN2CCOCC2)cc1 [Luminespib] (partner 0.01 µM)
- relative viability ([2]; first compound 0.08 µM): 0.48
- relative viability ([2]; first compound 0.8 µM): 0.694
- relative viability ([2]; first compound 2.53 µM): 0.696
- relative viability ([3]; first compound 0.08 µM): 0.762
- relative viability ([3]; first compound 0.253 µM): 0.88
- relative viability ([3]; first compound 0.8 µM): 0.832
- relative viability ([3]; first compound 2.53 µM): 0.877
- relative viability ([4]; first compound 0.08 µM): 1.63
- relative viability ([4]; first compound 0.8 µM): 1.07
- relative viability ([4]; first compound 2.53 µM): 1.08
- relative viability ([5]; first compound 0.08 µM): 0.427
- relative viability ([5]; first compound 0.8 µM): 0.445
- relative viability ([5]; first compound 2.53 µM): 0.486
- relative viability ([6]; first compound 0.08 µM): 0.667
- relative viability ([6]; first compound 0.253 µM): 0.978
- relative viability ([6]; first compound 0.8 µM): 0.839
- relative viability ([6]; first compound 2.53 µM): 0.949
- relative viability ([7]; first compound 0.08 µM): 0.386
- relative viability ([7]; first compound 0.253 µM): 0.423
- relative viability ([7]; first compound 0.8 µM): 0.42
- relative viability ([7]; first compound 2.53 µM): 0.463
- relative viability ([8]; first compound 0.08 µM): 0.978
- relative viability ([8]; first compound 0.8 µM): 0.896
- relative viability ([8]; first compound 2.53 µM): 0.919
- relative viability ([9]; first compound 0.08 µM): 1.3
- relative viability ([9]; first compound 0.253 µM): 1.18
- relative viability ([9]; first compound 0.8 µM): 1.44
- relative viability ([9]; first compound 2.53 µM): 1.35

SMILES: COc1nc(C)cnc1NS(=O)(=O)c1cccnc1-c1ccc(-c2nnco2)cc1 [Zibotentan] + N=C(N)NC(=N)NCCc1ccccc1 [Phenformin] (partner 250 µM)
- relative viability ([1]; first compound 0.08 µM): 0.184
- relative viability ([1]; first compound 0.253 µM): 0.136
- relative viability ([1]; first compound 0.8 µM): 0.183
- relative viability ([1]; first compound 2.53 µM): 0.135
- relative viability ([2]; first compound 0.08 µM): 0.236
- relative viability ([2]; first compound 0.253 µM): 0.235
- relative viability ([2]; first compound 0.8 µM): 0.252
- relative viability ([2]; first compound 2.53 µM): 0.227
- relative viability ([3]; first compound 0.08 µM): 0.242
- relative viability ([3]; first compound 0.253 µM): 0.238
- relative viability ([3]; first compound 0.8 µM): 0.249
- relative viability ([3]; first compound 2.53 µM): 0.245
- relative viability ([4]; first compound 0.08 µM): 0.167
- relative viability ([4]; first compound 0.253 µM): 0.201
- relative viability ([4]; first compound 0.8 µM): 0.273
- relative viability ([4]; first compound 2.53 µM): 0.158
- relative viability ([5]; first compound 0.08 µM): 0.592
- relative viability ([5]; first compound 0.8 µM): 0.626
- relative viability ([5]; first compound 2.53 µM): 0.564
- relative viability ([6]; first compound 0.08 µM): 0.461
- relative viability ([6]; first compound 0.253 µM): 0.541
- relative viability ([6]; first compound 0.8 µM): 0.46
- relative viability ([6]; first compound 2.53 µM): 0.514
- relative viability ([7]; first compound 0.08 µM): 0.73
- relative viability ([7]; first compound 0.253 µM): 0.699
- relative viability ([7]; first compound 0.8 µM): 0.803
- relative viability ([7]; first compound 2.53 µM): 0.814
- relative viability ([8]; first compound 0.08 µM): 0.534
- relative viability ([8]; first compound 0.8 µM): 0.518
- relative viability ([8]; first compound 2.53 µM): 0.575
- relative viability ([9]; first compound 0.08 µM): 0.423
- relative viability ([9]; first compound 0.8 µM): 0.418
- relative viability ([9]; first compound 2.53 µM): 0.447
